{"source": "patent US7371780B2", "about": "“Use of calphostin C to treat drug-resistant tumor cells” (priority 2003, dated 2008)", "key": {"[1]": {"tested_on": "MCF-7 cells", "assay": "Microscopic cell morphology (bright field, AO/EB, PI), MCF-7", "assay_type": "cell-based, human", "conditions": "50 nM light-activated calphostin C", "protocol": "For microscopic observation, cells were seeded onto standard glass coverslips in 10 cm tissue culture plates with 10 ml of H21 medium and grown for 2 days until 40-50% confluence was obtained. After treatment with paclitaxel, doxorubicin or calphostin C, the cells on the glass coverslips were washed twice with PBS (2.7 mM KCl, 1.0 mM KH2PO4, 137 mM NaCl, 10 mM Na2HPO4, pH 7.4) and stained with acridine orange/ethidium bromide (each at 4 μg/ml in PBS) for 10 min at 37° C.. The coverslips were then washed three times in PBS and mounted onto standard glass slides for morphological evaluation. For propidium iodide (PI) staining, the cells on coverslips were washed twice with PBS and fixed in methanol (cooled to −20° C.) for 20 min. Thirty μl of propidium iodide (PI) staining solution (100 μg/ml PI, 0.1% sodium citrate, 100 μg/ml RNase A and 0.3% Nonidet P-40) were then applied to the coverslips for 5 min. […] The cells were then examined using a Zeiss Axiovert 100 inverted fluorescence microscope. […] For each sample, the number of dead cells was determined by visualization after ethidium bromide staining, whereby only dead cells which have lost membrane integrity allow entry of cell-impermeable ethidium bromide into cells to complex with DNA and induce bright red fluorescence. […] The images were recorded and overlayed using Northern Eclipse software (Empix Imaging Inc., Mississauga, ON)."}, "[2]": {"tested_on": "MCF-7 cells", "assay": "Clonogenic assay, MCF-7 cells", "assay_type": "cell-based, human", "conditions": "24 h drug, calphostin C light-activated 2 h, read-out: IC50 (concentration required to kill or inhibit the growth of 50% of cells)", "protocol": "The breast cancer cell line MCF-7 (lot HTB-22) was obtained from the American […] (ATCC) and maintained in Dulbecco's H21 medium (MEM) supplemented with 10% Fetal Bovine Serum (FBS) (HyClone, Logan, Utah) in a humidified atmosphere containing 5% CO2 at 37° C. To establish drug resistant cell lines, MCF-7 cells were grown in the presence of either paclitaxel or doxorubicin, beginning at a concentration 1000-fold below that required to kill 50% of the cells (the IC50). The drug concentration was increased 3-fold every two weeks (two passages), with an aliquot of the cells removed for storage in liquid nitrogen before each increase in concentration. Dose escalation continued until all cells died, after which the cells able to tolerate the highest concentration of drug were thawed for subsequent study. In this way, paclitaxel-resistant (MCF-7TAX) and doxorubicin-resistant (MCF-7DOX) cell lines were established. The IC50 for each drug was determined using a clonogenic assay as outlined below. The drug resistant cells were kept in culture in the presence of the maximally tolerated drug dose. Before each experiment, the cell lines were grown for two days in the absence of drug after which fresh medium containing either calphostin C (Sigma Laboratories, Oakville, ON), doxorubicin (Adriamycin PFS®, USP, Mississauga, ON) or paclitaxel (Taxol, Bristol-Myers Squibb, Montreal, QC) was added at the concentrations indicated.\nThe sensitivity of MCF-7, MCF-7TAX and MCF-7DOX cells to calphostin C, paclitaxel or doxorubicin was determined using a clonogenic assay. Briefly, 2.5×10^5 cells were seeded into 25 cm^2 tissue culture flasks in Dulbecco's H21 medium supplemented with 10% FBS. The cells were allowed to grow overnight, after which the medium was removed and replaced with medium containing varying concentrations of paclitaxel, doxorubicin, or calphostin C (after 2 hours of light exposure to activate the molecule). […] The colonies present in 5 randomly selected fields were then counted by visual inspection. […]"}, "[3]": {"tested_on": "MES-SA human uterine sarcoma cells", "assay": "Death and cytoplasmic vacuolization, MES-SA", "assay_type": "cell-based", "conditions": "data not shown"}}, "data": [{"smiles": "COc1c(C[C@@H](C)OC(=O)Oc2ccc(O)cc2)c2c3c(C[C@@H](C)OC(=O)c4ccccc4)c(OC)c(=O)c4c(O)cc(OC)c(c5c(OC)cc(O)c(c1=O)c52)c43", "note": "[calphostin C]", "values": [{"measurement": "percentage of cells showing cytoplasmic vacuoles", "setting": "[1]", "value": "Over 50%"}, {"measurement": "IC50", "setting": "[2]", "value": 13.2, "unit": "nM"}, {"measurement": "induction of death and cytoplasmic vacuolization", "setting": "[3]", "value": "induce both death and cytoplasmic vacuolization"}]}]}
